Measurements published in patent publication US9511073B2, “Aromatic amides and uses thereof” (TAXIS Pharmaceuticals, Inc., priority 2011, dated 2016).
Values after ≈ are worked out from the molar mass of the structure shown.

Test system: Staphylococcus aureus (Isolate ID ATCC 29213)
Assay: Bacterial assay: MIC by broth microdilution or agar dilution (CLSI), S. aureus ATCC 29213
Type: cell-based
Conditions: Staphylococcus aureus, ATCC29213, read-out: S. aureus MIC (μg/mL) Activity Range, S. aureus (ATCC29213)
Procedure, shortened: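 MICs by CLSI broth microdilution or agar dilution against S. aureus ATCC 29213 and its FtsZ-G196A mutant. Values reported as ranges: A ≤0.25 μg/mL, B >0.25–1.0, C >1.0–16, D >16 μg/mL.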

Row | SMILES | MIC [µg/mL]
1 | CN1CCN(C(=O)OCC(Oc2ccc(F)c(C(N)=O)c2F)c2nc(-c3ccc(C(F)(F)F)cc3)c(Br)o2)CC1 (centres unmarked) [Compound 178, 2-(5-bromo-4-(4-(trifluoromethyl)phenyl)oxazol-2-yl)-2-(3-carbamoyl-2,4-difluorophenoxy)ethyl 4-methylpiperazine-1-carboxylate] | 0.25 to 1 (≈ 0.395 to 1.58 µM)
2 | COc1cccc(-c2nc(C(CO)Oc3ccc(F)c(C(N)=O)c3F)oc2Br)c1 (centres unmarked) [Compound 117, 3-(1-(5-bromo-4-(3-methoxyphenyl)oxazol-2-yl)-2-hydroxyethoxy)-2,6-difluorobenzamide] | > 16
3 | CS(=O)(=O)OCC(Oc1ccc(F)c(C(N)=O)c1F)c1nc(-c2ccc(Cl)cc2)c(Cl)o1 (centres unmarked) [Compound 48, 2-(3-carbamoyl-2,4-difluorophenoxy)-2-(5-chloro-4-(4-chlorophenyl)oxazol-2-yl)ethyl methanesulfonate] | 1 to 16
4 | CN(Cc1cccnc1)C(=O)OCC(Oc1ccc(F)c(C(N)=O)c1F)c1nc(-c2ccc(C(F)(F)F)cc2)c(Br)o1 (centres unmarked) [Compound 185, 2-(5-bromo-4-(4-(trifluoromethyl)phenyl)oxazol-2-yl)-2-(3-carbamoyl-2,4-difluorophenoxy)ethyl methyl(pyridin-3-ylmethyl)carbamate] | 0.25 to 1 (≈ 0.381 to 1.53 µM)
5 | COc1ccc(CNC(=O)OCC(Oc2ccc(F)c(C(N)=O)c2F)c2nc(-c3ccc(C(F)(F)F)cc3)c(Br)o2)cn1 (centres unmarked) [Compound 208, 2-(5-bromo-4-(4-(trifluoromethyl)phenyl)oxazol-2-yl)-2-(3-carbamoyl-2,4-difluorophenoxy)ethyl ((6-methoxypyridin-3-yl)methyl)carbamate] | 0.25 to 1 (≈ 0.372 to 1.49 µM)
6 | CN(C)CC(=O)OCC(Oc1ccc(F)c(C(N)=O)c1F)c1nc(-c2ccc(C(F)(F)F)cc2)c(Br)o1 (centres unmarked) [Compound 57, 2-(5-bromo-4-(4-(trifluoromethyl)phenyl)oxazol-2-yl)-2-(3-carbamoyl-2,4-difluorophenoxy)ethyl 2-(dimethylamino)acetate] | 0.25 to 1 (≈ 0.422 to 1.69 µM)
7 | NC(=O)c1c(F)ccc(OC(CO)c2nc(-c3ccccc3F)c(Br)o2)c1F (centres unmarked) [Compound 229, 3-(1-(5-bromo-4-(2-fluorophenyl)oxazol-2-yl)-2-hydroxyethoxy)-2,6-difluorobenzamide] | > 16
8 | NC(=O)c1c(F)ccc(OC(CO)c2nc(-c3ccc(F)cc3F)co2)c1F (centres unmarked) [Compound 226, 3-(1-(4-(2,4-difluorophenyl)oxazol-2-yl)-2-hydroxyethoxy)-2,6-difluorobenzamide] | > 16
9 | CC(=O)OCC(Oc1ccc(F)c(C(N)=O)c1F)c1nc(-c2ccc(C#N)cc2)c(Br)o1 (centres unmarked) [Compound 76, 2-(5-bromo-4-(4-cyanophenyl)oxazol-2-yl)-2-(3-carbamoyl-2,4-difluorophenoxy)ethyl acetate] | 1 to 16
10 | NC(=O)c1c(F)ccc(OC(C(=O)O)c2csc(-c3ccc(C(F)(F)F)cc3)n2)c1F (centres unmarked) [Compound 127, 2-(3-carbamoyl-2,4-difluorophenoxy)-2-(2-(4-(trifluoromethyl)phenyl)thiazol-4-yl)acetic acid] | > 16
11 | CCOc1ncc(-c2csc(C(C)Oc3ccc(F)c(C(N)=O)c3F)n2)s1 (centres unmarked) [Compound 14] | < 0.25
12 | CCC(Oc1ccc(F)c(C(N)=O)c1F)c1nc(CCO)oc1Br (centres unmarked) [Compound 122, 3-(1-(5-bromo-2-(2-hydroxyethyl)oxazol-4-yl)propoxy)-2,6-difluorobenzamide] | > 16
13 | Cc1nn(C)cc1CNC(=O)OCC(Oc1ccc(F)c(C(N)=O)c1F)c1nc(-c2ccc(C(F)(F)F)cc2)c(Br)o1 (centres unmarked) [Compound 204, 2-(5-bromo-4-(4-(trifluoromethyl)phenyl)oxazol-2-yl)-2-(3-carbamoyl-2,4-difluorophenoxy)ethyl ((1,3-dimethyl-1H-pyrazol-4-yl)methyl)carbamate] | 0.25 to 1 (≈ 0.38 to 1.52 µM)
14 | Cc1c(CNC(=O)OCC(Oc2ccc(F)c(C(N)=O)c2F)c2nc(-c3ccc(C(F)(F)F)cc3)c(Br)o2)cnn1C (centres unmarked) [Compound 205, 2-(5-bromo-4-(4-(trifluoromethyl)phenyl)oxazol-2-yl)-2-(3-carbamoyl-2,4-difluorophenoxy)ethyl ((1,5-dimethyl-1H-pyrazol-4-yl)methyl)carbamate] | 0.25 to 1 (≈ 0.38 to 1.52 µM)
15 | Cc1nnc(CCC(Oc2ccc(F)c(C(N)=O)c2F)c2nc(-c3ccc(C(F)(F)F)cc3)c(Br)o2)o1 (centres unmarked) [Compound 97, 3-(1-(5-bromo-4-(4-(trifluoromethyl)phenyl)oxazol-2-yl)-3-(5-methyl-1,3,4-oxadiazol-2-yl)propoxy)-2,6-difluorobenzamide] | 1 to 16 (≈ 1.7 to 27.2 µM)
16 | CCCc1oc(C(C)Oc2ccc(F)c(C(N)=O)c2F)nc1-c1ccccc1 (centres unmarked) [Compound 8] | 1 to 16 (≈ 2.59 to 41.4 µM)
17 | NC(=O)c1c(F)ccc(OC(CO)c2csc(-c3ccc(Cl)cc3)n2)c1F (centres unmarked) [Compound 258, 3-(1-(2-(4-chlorophenyl)thiazol-4-yl)-2-hydroxyethoxy)-2,6-difluorobenzamide] | 1 to 16 (≈ 2.43 to 38.9 µM)
18 | NC(=O)c1c(F)ccc(OC(CO)c2nc(-c3cccc(O)c3)c(Br)o2)c1F (centres unmarked) [Compound 118, 3-(1-(5-bromo-4-(3-hydroxyphenyl)oxazol-2-yl)-2-hydroxyethoxy)-2,6-difluorobenzamide] | > 16

Row | SMILES | MIC [µg/mL]
19 | CS(=O)(=O)c1ccc(-c2nc(C(CO)Oc3ccc(F)c(C(N)=O)c3F)oc2Br)cc1 (centres unmarked) [Compound 145, 3-(1-(5-bromo-4-(4-(methylsulfonyl)phenyl)oxazol-2-yl)-2-hydroxyethoxy)-2,6-difluorobenzamide] | > 16
20 | CC(=O)OCC(Oc1ccc(F)c(C(N)=O)c1F)c1nc(-c2ccc(C(F)(F)F)cc2)oc1Br (centres unmarked) [Compound 137, 2-(5-bromo-2-(4-(trifluoromethyl)phenyl)oxazol-4-yl)-2-(3-carbamoyl-2,4-difluorophenoxy)ethyl acetate] | > 16
21 | CNC(=O)C(Oc1ccc(F)c(C(N)=O)c1F)c1nc(-c2ccc(C(F)(F)F)cc2)c(Cl)o1 (centres unmarked) [Compound 51, 3-(1-(5-chloro-4-(4-(trifluoromethyl)phenyl)oxazol-2-yl)-2-(methylamino)-2-oxoethoxy)-2,6-difluorobenzamide] | 1 to 16 (≈ 2.04 to 32.7 µM)
22 | NC(=O)c1c(F)ccc(OC(CO)c2csc(-c3ccc(C(F)(F)F)cc3)n2)c1F (centres unmarked) [Compound 126, 2,6-difluoro-3-(2-hydroxy-1-(2-(4-(trifluoromethyl)phenyl)thiazol-4-yl)ethoxy)benzamide] | 1 to 16 (≈ 2.25 to 36 µM)
23 | C=CCOP(=O)(OCC=C)OCC(Oc1ccc(F)c(C(N)=O)c1F)c1nc(-c2ccc(C(F)(F)F)cc2)c(Br)o1 (centres unmarked) [Compound 71, diallyl (2-(5-bromo-4-(4-(trifluoromethyl)phenyl)oxazol-2-yl)-2-(3-carbamoyl-2,4-difluorophenoxy)ethyl) phosphate] | 0.25 to 1
24 | NC(=O)c1c(F)ccc(OC(CO)c2nc(-c3ccc(Cl)cc3)c(Cl)o2)c1F (centres unmarked) [Compound 47, 3-(1-(5-chloro-4-(4-chlorophenyl)oxazol-2-yl)-2-hydroxyethoxy)-2,6-difluorobenzamide] | 0.25 to 1 (≈ 0.582 to 2.33 µM)
25 | NC(=O)c1c(F)ccc(OC(CNC(=O)OCc2ccccc2)c2nc(-c3ccc(C(F)(F)F)cc3)co2)c1F (centres unmarked) [Compound 276, benzyl (2-(3-carbamoyl-2,4-difluorophenoxy)-2-(4-(4-(trifluoromethyl)phenyl)oxazol-2-yl)ethyl)carbamate] | 1 to 16 (≈ 1.78 to 28.5 µM)
26 | Cc1nc(C)c(-c2nc(C(CO)Oc3ccc(F)c(C(N)=O)c3F)oc2Br)s1 (centres unmarked) [Compound 245, 3-(1-(5-bromo-4-(2,4-dimethylthiazol-5-yl)oxazol-2-yl)-2-hydroxyethoxy)-2,6-difluorobenzamide] | > 16
27 | CCC(Oc1ccc(F)c(C(N)=O)c1F)c1nc(CCOC(C)=O)oc1Br (centres unmarked) [Compound 121, 2-(5-bromo-4-(1-(3-carbamoyl-2,4-difluorophenoxy)propyl)oxazol-2-yl)ethyl acetate] | > 16
28 | NC(=O)c1c(F)ccc(OC(COC(=O)NCc2cccc[n+]2[O-])c2nc(-c3ccc(C(F)(F)F)cc3)c(Br)o2)c1F (centres unmarked) [Compound 173, 2-((((2-(5-bromo-4-(4-(trifluoromethyl)phenyl)oxazol-2-yl)-2-(3-carbamoyl-2,4-difluorophenoxy)ethoxy)carbonyl)amino)methyl)pyridine 1-oxide] | 0.25 to 1 (≈ 0.38 to 1.52 µM)
29 | CC(=O)NNC(=O)CCC(Oc1ccc(F)c(C(N)=O)c1F)c1nc(-c2ccc(C(F)(F)F)cc2)c(Br)o1 (centres unmarked) [Compound 92, 3-(4-(2-acetylhydrazinyl)-1-(5-bromo-4-(4-(trifluoromethyl)phenyl)oxazol-2-yl)-4-oxobutoxy)-2,6-difluorobenzamide] | 1 to 16 (≈ 1.65 to 26.4 µM)
30 | NC(=O)c1c(F)ccc(O[C@H](CO)c2nc(-c3ccc4occc4c3)c(Br)o2)c1F [Compound 254B, (R)-3-(1-(4-(benzofuran-5-yl)-5-bromooxazol-2-yl)-2-hydroxyethoxy)-2,6-difluorobenzamide] | 1 to 16 (≈ 2.09 to 33.4 µM)
31 | CC(Oc1ccc(F)c(C(N)=O)c1F)c1nc(Br)c(Cl)s1 (centres unmarked) [Compound 24] | 1 to 16 (≈ 2.51 to 40.2 µM)
32 | NCCNC(=O)OCC(Oc1ccc(F)c(C(N)=O)c1F)c1nc(-c2ccc(C(F)(F)F)cc2)c(Br)o1 (centres unmarked) [Compound 152, 2-(5-bromo-4-(4-(trifluoromethyl)phenyl)oxazol-2-yl)-2-(3-carbamoyl-2,4-difluorophenoxy)ethyl (2-aminoethyl)carbamate] | 1 to 16 (≈ 1.69 to 27 µM)
33 | CC(=O)NCC(Oc1ccc(F)c(C(N)=O)c1F)c1nc(-c2ccc(C(F)(F)F)cc2)c(Br)o1 (centres unmarked) [Compound 283, 3-(2-acetamido-1-(5-bromo-4-(4-(trifluoromethyl)phenyl)oxazol-2-yl)ethoxy)-2,6-difluorobenzamide] | 1 to 16 (≈ 1.82 to 29.2 µM)
34 | Cc1ccc(CNC(=O)OCC(Oc2ccc(F)c(C(N)=O)c2F)c2nc(-c3ccc(C(F)(F)F)cc3)c(Br)o2)n1C (centres unmarked) [Compound 211, 2-(5-bromo-4-(4-(trifluoromethyl)phenyl)oxazol-2-yl)-2-(3-carbamoyl-2,4-difluorophenoxy)ethyl ((1,5-dimethyl-1H-pyrrol-2-yl)methyl)carbamate] | 0.25 to 1 (≈ 0.38 to 1.52 µM)
35 | CC(=O)OCC(Oc1ccc(F)c(C(N)=O)c1F)c1nc(-c2ccc(C(F)(F)F)cc2)c(Cl)o1 (centres unmarked) [Compound 42, 2-(3-carbamoyl-2,4-difluorophenoxy)-2-(5-chloro-4-(4-(trifluoromethyl)phenyl)oxazol-2-yl)ethyl acetate] | 0.25 to 1
